Measured values from patent US20250270190A1, “KIT INHIBITORS” (BLUEPRINT MEDICINES CORPORATION, priority 2022, published 2025).
pIC50: −log10 of the molar value.

Target: T1, c-kit autophosphorylation (Phospho c-Kit Tyr721) in HMC 1.1 (exon 11/13) cells, V654A (Homo sapiens, UniProt P10721, V560G/V654A)
T1 construct: endogenous in cells; host or cells: HMC 1.1 (exon 11/13) cells
Experiment: pKIT Meso Scale Discovery (MSD) assay, inhibition of autophosphorylation of KIT, HMC1.1_V654A
Format: cell-based
Details: Table 1, cell line not named for Table 1, b1056 names pKIT HMC1.1_V654A, read-out: Code (IC50 for inhibition of autophosphorylation of KIT, pKIT MSD assay)
Description: In this MSD assay, specific capture antibodies for the analytes were coated in arrays in each well of a 96-well carbon electrode plate surface. The detection system used SULFO-TAG™ labels that emit light upon electrochemical stimulation initiated at the electrode surfaces of the […] and MULTI-SPOT® plates. The electrical stimulation was decoupled from the output signal, which was light and generated assays with minimal background. The goal of this assay was to assess the percent inhibition of autophosphorylation of c-kit in cells when treated with compounds of the disclosure in a dose-dependent manner.
HMC1.1 cells were maintained in IMDM media supplemented with 20% Calf Serum with Iron and 100 units/mL Penicillin-Streptomycin and grown in a 37° C. humidified tissue culture incubator. HMC1.1 cells were passaged by 1:5 dilution into fresh IMDM media supplemented with 20% Calf Serum with Iron and 100 units/mL Penicillin-Streptomycin every 5-7 days and were discarded after 20 passages.
Seeding was performed as follows: HMC cells were brought to 1×10^6 cells/mL in fresh phenol red free, serum-free, iron-free IDM media with Pen/Strep; cells were seeded/plated into respective U-bottom plate by dispensing 50 μL/well (50,000 cells) using the Multidrop, and covered and incubated cells at 37° C. in a humidified tissue culture incubator for 4 hours (starvation).
Dosing was performed as follows: The compound mother plate was prepared by adding 16 μL of compound to 24 μL of DMSO to row A, odd-numbered columns of screen matrix plate. […] Intermediate plates were prepared in V-bottom plates by dispensing 98 μL of phenol red free, serum free IMDM media with Pen/Strep into all wells. 2 μL DMSO or 2 μL 10 mM staurosporine was added to appropriate control wells. At the end of four hours, the Bravo protocol 10 cpds vertical dose MSD 2 U-plates 96-well was used to: add 2 μL from the compound plate to the intermediate plate and dose cells with 7 μL from the intermediate plate. The cells were covered and incubated at 37° C. in a humidified tissue culture incubator for 90 min. The complete lysis buffer was prepared with AlphaLISA 5× Lysis Buffer supplemented with 1× protease inhibitor cocktail and kept on ice. The cells were pelleted by centrifuging plate at 2500×g for 5 min, 4° C. and media removed. Complete lysis buffer was added (14 μL/well). The cells were covered and shaken at 4° C. on a plate shaker at 600 rpm for 30 min and kept cold
The MSD protocol was preformed as follows: Tris Wash Buffer (2L) was prepared by diluting 10× stock of Tris Wash Buffer to 1× in water. Blocking Solution was prepared by dissolving 600 mg Blocker A in 20 mL 1× Trish Wash Buffer (per plate). The Antibody Dilution Buffer was prepared by mixing 1 mL Blocking solution and 2 mL 1× Trish Wash Buffer (per plate) and kept on ice. Blocking Solution was added (150 μL/well) to each MSD plate using a multichannel repeater pipette. The plate was covered and incubated at room temperature on a plate shaker at 700 rpm for hr. The Bio Tek protocol RL-96w-wash-MSD_stacker_fromC was used to wash plates 3× with 150 μL/well. Cells were pelleted by centrifuging lysate plates at 2500×g for 5 mins. The Bravo protocol was used (transfer 25 ul supernatants from V-96 to assay plate) to transfer 25 μL sample lysate per well to each MSD plate. The plates were covered and incubated at room temperature on a plate shaker at 700 rpm for hr. The Bio Tek protocol RL-96w-wash-MSD_stacker_fromC was used to wash plates 3× with 150 μL/well. The Detection Antibody Solution was prepared by diluting the 60 μL of the 50× antibody stock in 2.94 mL of the Antibody Dilution Buffer (per plate) and kept on ice. 25 μL/well of detection antibody solution was added to each MSD plate. The plates were covered and incubated at room temperature on a plate shaker at 700 rpm for 1 hr. The Read Buffer was prepared by diluting 5 mL of 4× stock of Read Buffer to 1× in 15 mL water (per plate).

T1 sequence (P10721 26-976 V560G/V654A): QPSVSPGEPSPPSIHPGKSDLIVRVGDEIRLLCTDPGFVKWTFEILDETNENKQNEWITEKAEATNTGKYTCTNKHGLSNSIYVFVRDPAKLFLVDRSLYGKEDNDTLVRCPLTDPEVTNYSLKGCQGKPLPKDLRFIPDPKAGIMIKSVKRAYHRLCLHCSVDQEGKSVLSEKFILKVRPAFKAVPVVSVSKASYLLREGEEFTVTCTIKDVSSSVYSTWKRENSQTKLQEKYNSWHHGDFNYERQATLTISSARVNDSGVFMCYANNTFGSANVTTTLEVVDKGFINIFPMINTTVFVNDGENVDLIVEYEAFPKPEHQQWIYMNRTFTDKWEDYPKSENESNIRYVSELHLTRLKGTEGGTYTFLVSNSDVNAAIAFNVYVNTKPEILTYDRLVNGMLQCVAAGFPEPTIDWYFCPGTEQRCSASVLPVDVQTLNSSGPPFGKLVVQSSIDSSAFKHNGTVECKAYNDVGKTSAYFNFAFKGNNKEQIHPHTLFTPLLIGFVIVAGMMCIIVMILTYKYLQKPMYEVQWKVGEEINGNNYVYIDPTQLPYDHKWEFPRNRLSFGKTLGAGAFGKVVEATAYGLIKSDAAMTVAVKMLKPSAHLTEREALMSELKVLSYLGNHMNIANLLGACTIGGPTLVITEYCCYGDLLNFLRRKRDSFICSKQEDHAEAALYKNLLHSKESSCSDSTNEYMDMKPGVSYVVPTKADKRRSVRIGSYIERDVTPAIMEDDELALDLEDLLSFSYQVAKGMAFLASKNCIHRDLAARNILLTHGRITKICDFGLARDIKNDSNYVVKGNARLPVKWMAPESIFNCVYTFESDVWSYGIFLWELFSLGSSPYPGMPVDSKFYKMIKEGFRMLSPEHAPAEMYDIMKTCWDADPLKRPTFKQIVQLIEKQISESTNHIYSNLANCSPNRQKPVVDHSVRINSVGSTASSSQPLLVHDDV

pIC50 | Structure (SMILES)
> 8.00 | COc1cc(Nc2cc(N)nc(C(F)F)n2)ncc1-c1cnn(C[C@@H]2CCN2C)c1 (single isomer, unassigned) [Compound 139, (S)-2-(difluoromethyl)-N4-(4-methoxy-5-(1-((1-methylazetidin-2-yl)methyl)-1H-pyrazol-4-yl)pyridin-2-yl)pyrimidine-4,6-diamine or (R)-2-(difluoromethyl)-N4-(4-methoxy-5-(1-((1-methylazetidin-2-yl)methyl)-1H-pyrazol-4-yl)pyridin-2-yl)pyrimidine-4,6-diamine]
> 8.00 | CC(C)Oc1cc(Nc2cc(N)nc([C@H](C)F)n2)ncc1-c1cnn([C@@H]2CCOC2)c1 (single isomer, unassigned) [Compound 156, 2-((S)-1-fluoroethyl)-N4-(4-isopropoxy-5-(1-((R)-tetrahydrofuran-3-yl)-1H-pyrazol-4-yl)pyridin-2-yl)pyrimidine-4,6-diamine or 2-((S)-1-fluoroethyl)-N4-(4-isopropoxy-5-(1-((S)-tetrahydrofuran-3-yl)-1H-pyrazol-4-yl)pyridin-2-yl)pyrimidine-4,6-diamine]
> 8.00 | CC(C)Oc1cc(Nc2cc(N)nc([C@H](C)F)n2)ncc1-c1cnn([C@H]2CCOC2)c1 (single isomer, unassigned) [Compound 157, 2-((S)-1-fluoroethyl)-N4-(4-isopropoxy-5-(1-((S)-tetrahydrofuran-3-yl)-1H-pyrazol-4-yl)pyridin-2-yl)pyrimidine-4,6-diamine or 2-((S)-1-fluoroethyl)-N4-(4-isopropoxy-5-(1-((R)-tetrahydrofuran-3-yl)-1H-pyrazol-4-yl)pyridin-2-yl)pyrimidine-4,6-diamine]
> 8.00 | Nc1cc(Nc2cc(OC3CC3)c(-c3cnn([C@H]4CCNC4)c3)cn2)nc(C(F)F)n1 (single isomer, unassigned) [Compound 159, (S)-N4-(4-cyclopropoxy-5-(1-(pyrrolidin-3-yl)-1H-pyrazol-4-yl)pyridin-2-yl)-2-(difluoromethyl)pyrimidine-4,6-diamine or (R)-N4-(4-cyclopropoxy-5-(1-(pyrrolidin-3-yl)-1H-pyrazol-4-yl)pyridin-2-yl)-2-(difluoromethyl)pyrimidine-4,6-diamine]
> 8.00 | Nc1cc(Nc2cc(OC3CC3)c(-c3cnn([C@@H]4CCNC4)c3)cn2)nc(C(F)F)n1 (single isomer, unassigned) [Compound 160, (R)-N4-(4-cyclopropoxy-5-(1-(pyrrolidin-3-yl)-1H-pyrazol-4-yl)pyridin-2-yl)-2-(difluoromethyl)pyrimidine-4,6-diamine or (S)-N4-(4-cyclopropoxy-5-(1-(pyrrolidin-3-yl)-1H-pyrazol-4-yl)pyridin-2-yl)-2-(difluoromethyl)pyrimidine-4,6-diamine]
> 8.00 | Nc1cc(Nc2cc(OC3CC3)c(-c3cnn(C[C@H]4CCN4)c3)cn2)nc(C(F)F)n1 (single isomer, unassigned) [Compound 161, (R)-N4-(5-(1-(azetidin-2-ylmethyl)-1H-pyrazol-4-yl)-4-cyclopropoxypyridin-2-yl)-2-(difluoromethyl)pyrimidine-4,6-diamine or (S)-N4-(5-(1-(azetidin-2-ylmethyl)-1H-pyrazol-4-yl)-4-cyclopropoxypyridin-2-yl)-2-(difluoromethyl)pyrimidine-4,6-diamine]
> 8.00 | Nc1cc(Nc2cc(OC3CC3)c(-c3cnn(C[C@@H]4CCN4)c3)cn2)nc(C(F)F)n1 (single isomer, unassigned) [Compound 162, (S)-N4-(5-(1-(azetidin-2-ylmethyl)-1H-pyrazol-4-yl)-4-cyclopropoxypyridin-2-yl)-2-(difluoromethyl)pyrimidine-4,6-diamine or (R)-N4-(5-(1-(azetidin-2-ylmethyl)-1H-pyrazol-4-yl)-4-cyclopropoxypyridin-2-yl)-2-(difluoromethyl)pyrimidine-4,6-diamine]
> 8.00 | Nc1cc(Nc2cc(OC3CC3)c(-c3cnn([C@H]4CCOC4)c3)cn2)nc(C(F)F)n1 (single isomer, unassigned) [Compound 164, (S)—N4-(4-cyclopropoxy-5-(1-(tetrahydrofuran-3-yl)-1H-pyrazol-4-yl)pyridin-2-yl)-2-(difluoromethyl)pyrimidine-4,6-diamine or (R)—N4-(4-cyclopropoxy-5-(1-(tetrahydrofuran-3-yl)-1H-pyrazol-4-yl)pyridin-2-yl)-2-(difluoromethyl)pyrimidine-4,6-diamine]
> 8.00 | Nc1cc(Nc2cc(OC3CC3)c(-c3cnn([C@@H]4CCOC4)c3)cn2)nc(C(F)F)n1 (single isomer, unassigned) [Compound 165, (R)—N4-(4-cyclopropoxy-5-(1-(tetrahydrofuran-3-yl)-1H-pyrazol-4-yl)pyridin-2-yl)-2-(difluoromethyl)pyrimidine-4,6-diamine or (S)—N4-(4-cyclopropoxy-5-(1-(tetrahydrofuran-3-yl)-1H-pyrazol-4-yl)pyridin-2-yl)-2-(difluoromethyl)pyrimidine-4,6-diamine]
> 8.00 | CN[C@@H](C)Cn1cc(-c2cnc(Nc3cc(N)nc(C(F)F)n3)cc2OC(F)(F)F)cn1 (single isomer, unassigned) [Compound 195, (S)-2-(difluoromethyl)-N4-(5-(1-(2-(methylamino)propyl)-1H-pyrazol-4-yl)-4-(trifluoromethoxy)pyridin-2-yl)pyrimidine-4,6-diamine or (R)-2-(difluoromethyl)-N4-(5-(1-(2-(methylamino)propyl)-1H-pyrazol-4-yl)-4-(trifluoromethoxy)pyridin-2-yl)pyrimidine-4,6-diamine]
> 8.00 | CN[C@H](C)Cn1cc(-c2cnc(Nc3cc(N)nc(C(F)F)n3)cc2OC(F)(F)F)cn1 (single isomer, unassigned) [Compound 196, (R)-2-(difluoromethyl)-N4-(5-(1-(2-(methylamino)propyl)-1H-pyrazol-4-yl)-4-(trifluoromethoxy)pyridin-2-yl)pyrimidine-4,6-diamine or (S)-2-(difluoromethyl)-N4-(5-(1-(2-(methylamino)propyl)-1H-pyrazol-4-yl)-4-(trifluoromethoxy)pyridin-2-yl)pyrimidine-4,6-diamine]
7.40 to 8.00 | CNC(=O)c1cnc(Nc2cc(N)nc(CF)n2)cc1NC [Compound 1, 6-((6-amino-2-(fluoromethyl)pyrimidin-4-yl)amino)-N-methyl-4-(methylamino)nicotinamide]
< 7.40 | CNc1cc(Nc2cc(N)nc(C(F)F)n2)ncc1C(N)=O [Compound 2, 6-((6-amino-2-(difluoromethyl)pyrimidin-4-yl)amino)-4-(methylamino)nicotinamide]
7.40 to 8.00 | CNC(=O)c1cnc(Nc2cc(N)nc([C@H](C)F)n2)cc1NC [Compound 3, (S)-6-((6-amino-2-(1-fluoroethyl)pyrimidin-4-yl)amino)-N-methyl-4-(methylamino)nicotinamide]
> 8.00 | CNC(=O)c1cnc(Nc2cc(N)nc(C(F)F)n2)cc1NC [Compound 4, 6-((6-amino-2-(difluoromethyl)pyrimidin-4-yl)amino)-N-methyl-4-(methylamino)nicotinamide]
> 8.00 | [2H]C([2H])([2H])Nc1cc(Nc2cc(N)nc(C(F)F)n2)ncc1C(=O)NC [Compound 5, 6-((6-amino-2-(difluoromethyl)pyrimidin-4-yl)amino)-N-methyl-4-((methyl-d3)amino)nicotinamide]
